Experiments:
bedstraw = test: Test B pre/postemergence bedstraw; assay type: in vivo, Galium aparine; details: Preemergence; for Bedstraw plant response rating: scale 0 to 10, 0 is no effect, 10 is complete control
Outline: (§1)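 Response is a visual 0-to-10 score relative to untreated plants, where 0 means no effect and 10 means complete control, taken twelve to sixteen days after application. Treatments went onto soil at planting and onto foliage of 1- to 4-leaf plants, using a surfactant-containing non-phytotoxic solvent.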

blackgrass = test: Test B pre/postemergence blackgrass; assay type: in vivo, Alopecurus myosuroides
Outline: as §1

surinam grass = test: Test B pre/postemergence surinam grass; assay type: in vivo, Brachiaria decumbens
Outline: as §1

cocklebur = test: Test B pre/postemergence cocklebur; assay type: in vivo, Xanthium strumarium
Outline: as §1

corn = test: Test B pre/postemergence corn; assay type: in vivo, Zea mays
Outline: as §1

crabgrass = test: Test B pre/postemergence crabgrass; assay type: in vivo, Digitaria sanguinalis
Outline: as §1

giant foxtail = test: Test B pre/postemergence giant foxtail; assay type: in vivo, Setaria faberii
Outline: as §1

morningglory = test: Test B pre/postemergence morningglory; assay type: in vivo, Ipomoea hederacea
Outline: as §1

pigweed = test: Test B pre/postemergence pigweed; assay type: in vivo, Amaranthus retroflexus
Outline: as §1

rape = test: Test B pre/postemergence rape; assay type: in vivo, Brassica napus
Outline: as §1

soybean = test: Test B pre/postemergence soybean; assay type: in vivo, Glycine max
Outline: as §1

sugar beet = test: Test B pre/postemergence sugar beet; assay type: in vivo, Beta vulgaris
Outline: as §1

velvetleaf = test: Test B pre/postemergence velvetleaf; assay type: in vivo, Abutilon theophrasti
Outline: as §1

wheat = test: Test B pre/postemergence wheat; assay type: in vivo, Triticum aestivum
Outline: as §1

wild oat = test: Test B pre/postemergence wild oat; assay type: in vivo, Avena fatua
Outline: as §1

purple nutsedge = test: Test B pre/postemergence purple nutsedge; assay type: in vivo, Cyperus rotundus
Outline: as §1

[1] = Postemergence, Rate 62 g/ha, scale of 0 to 10, 0 is no effect, 10 is complete control
[2] = Postemergence, Rate 125 g/ha, scale 0 to 10, 0 is no effect, 10 is complete control
[3] = Postemergence, Rate 250 g/ha, scale 0 to 10
[4] = Postemergence, Rate 500 g/ha, scale 0 to 10, 0 is no effect, 10 is complete control
[5] = Preemergence, Rate 62 g/ha, scale of 0 to 10 where 0 is no effect and 10 is complete control
[6] = Preemergence, Rate 125 g/ha, scale 0 to 10, 0 is no effect, 10 is complete control
[7] = Preemergence, Rate 250 g/ha, scale 0 to 10, 0 is no effect, 10 is complete control
[8] = Preemergence, Rate 500 g/ha, scale of 0 to 10 where 0 is no effect and 10 is complete control

## C=CCCCn1c(=O)on(C(=O)N(c2ccc(F)cc2F)C(C)C)c1=O [Compound 516]
bedstraw; Rate 62 g/ha, scale of 0 to 10 where 0 is no effect and 10 is complete control
  Plant response rating, Bedstraw: 0
bedstraw; Rate 125 g/ha
  Bedstraw plant response rating: 0
bedstraw; Rate 250 g/ha
  Bedstraw plant response rating: 1
bedstraw; Rate 500 g/ha
  Bedstraw plant response rating: 7
blackgrass; [1]
  Blackgrass plant response rating: 0
blackgrass; [2]
  Blackgrass plant response rating: 4
blackgrass; [3]
  Blackgrass plant response rating: 7
blackgrass; [4]
  Plant response rating, Blackgrass: 7
blackgrass; [5]
  Plant response rating, Blackgrass: 3
blackgrass; [6]
  Blackgrass plant response rating: 5
blackgrass; [7]
  Blackgrass plant response rating: 8
blackgrass; [8]
  Blackgrass plant response rating: 10
Surinam grass; [1]
  B. signalgrass plant response rating: 0
Surinam grass; [2]
  B. signalgrass plant response rating: 0
Surinam grass; Postemergence, Rate 250 g/ha, scale 0 to 10, 0 no effect, 10 complete control
  B. signalgrass plant response rating: 3
Surinam grass; [4]
  Plant response rating, B. signalgrass: 5
Surinam grass; [5]
  Plant response rating, B. signalgrass: 1
Surinam grass; [6]
  B. signalgrass plant response rating: 5
Surinam grass; [7]
  B. signalgrass plant response rating: 9
Surinam grass; Preemergence, Rate 500 g/ha, scale 0 to 10, 0 is no effect, 10 is complete control
  B. signalgrass plant response rating: 10
cocklebur; [1]
  Cocklebur plant response rating: 2
cocklebur; [2]
  Cocklebur plant response rating: 3
cocklebur; [3]
  Cocklebur plant response rating: 3
cocklebur; [4]
  Plant response rating, Cocklebur: 5
cocklebur; [5]
  Plant response rating, Cocklebur: 0
cocklebur; [6]
  Cocklebur plant response rating: 0
cocklebur; [7]
  Cocklebur plant response rating: 0
cocklebur; [8]
  Cocklebur plant response rating: 0
corn; [1]
  Corn plant response rating: 0
corn; [2]
  Corn plant response rating: 0
corn; [3]
  Corn plant response rating: 0
corn; [4]
  Plant response rating, Corn: 0
corn; [5]
  Plant response rating, Corn: 0
corn; [6]
  Corn plant response rating: 0
corn; [8]
  Corn plant response rating: 0
crabgrass; [1]
  Crabgrass plant response rating: 3
crabgrass; [2]
  Crabgrass plant response rating: 9
crabgrass; [4]
  Plant response rating, Crabgrass: 9
crabgrass; [5]
  Plant response rating, Crabgrass: 6
crabgrass; [6]
  Crabgrass plant response rating: 9
crabgrass; [8]
  Crabgrass plant response rating: 10
Giant foxtail; [1]
  Giant foxtail plant response rating: 0
Giant foxtail; [2]
  Giant foxtail plant response rating: 5
Giant foxtail; [4]
  Plant response rating, Giant foxtail: 9
Giant foxtail; [5]
  Plant response rating, Giant foxtail: 10
Giant foxtail; [6]
  Giant foxtail plant response rating: 10
Giant foxtail; [8]
  Giant foxtail plant response rating: 10
morningglory; [1]
  Morningglory plant response rating: 2
morningglory; [2]
  Morningglory plant response rating: 3
morningglory; [4]
  Plant response rating, Morningglory: 7
morningglory; [5]
  Plant response rating, Morningglory: 0
morningglory; [6]
  Morningglory plant response rating: 0
morningglory; [8]
  Morningglory plant response rating: 0
pigweed; [1]
  Redroot pigweed plant response rating: 4
pigweed; [4]
  Plant response rating, Redroot pigweed: 8
pigweed; [5]
  Plant response rating, Redroot pigweed: 7
pigweed; [8]
  Redroot pigweed plant response rating: 10
rape; [1]
  Rape plant response rating: 1
rape; [2]
  Rape plant response rating: 4
rape; [4]
  Plant response rating, Rape: 9
rape; [5]
  Plant response rating, Rape: 0
rape; [6]
  Rape plant response rating: 1
rape; [8]
  Rape plant response rating: 9
soybean; [1]
  Soybean plant response rating: 4
soybean; [2]
  Soybean plant response rating: 4
soybean; [4]
  Plant response rating, Soybean: 7
soybean; [5]
  Plant response rating, Soybean: 0
soybean; [6]
  Soybean plant response rating: 0
soybean; [8]
  Soybean plant response rating: 0
Sugar beet; [1]
  Sugarbeets plant response rating: 0
Sugar beet; [2]
  Sugarbeets plant response rating: 0
Sugar beet; [4]
  Plant response rating, Sugarbeets: 8
Sugar beet; [5]
  Plant response rating, Sugarbeets: 1
Sugar beet; [6]
  Sugarbeets plant response rating: 3
Sugar beet; [8]
  Sugarbeets plant response rating: 7
velvetleaf; [1]
  Velvetleaf plant response rating: 3
velvetleaf; [2]
  Velvetleaf plant response rating: 4
velvetleaf; [4]
  Plant response rating, Velvetleaf: 4
velvetleaf; [5]
  Plant response rating, Velvetleaf: 0
velvetleaf; [8]
  Velvetleaf plant response rating: 7
wheat; [1]
  Wheat plant response rating: 0
wheat; [2]
  Wheat plant response rating: 1
wheat; [4]
  Plant response rating, Wheat: 7
wheat; [5]
  Plant response rating, Wheat: 0
wheat; [6]
  Wheat plant response rating: 0
wheat; [8]
  Wheat plant response rating: 5
Wild oat; [1]
  Wild oats plant response rating: 0
Wild oat; [2]
  Wild oats plant response rating: 2
Wild oat; [4]
  Plant response rating, Wild oats: 5
Wild oat; [5]
  Plant response rating, Wild oats: 0
Wild oat; [6]
  Wild oats plant response rating: 5
Wild oat; [8]
  Wild oats plant response rating: 9
Purple nutsedge; [1]
  Nutsedge plant response rating: 0
Purple nutsedge; [2]
  Nutsedge plant response rating: 0
Purple nutsedge; [5]
  Plant response rating, Nutsedge: 0
Purple nutsedge; [6]
  Nutsedge plant response rating: 0
Purple nutsedge; [8]
  Nutsedge plant response rating: 0
